What is called IC50 is the concentration needed to halve the response being measured.

Counter-ions that a name gives are not always drawn.

The target of one experiment is human PIM1 (Homo sapiens (Human), UniProt P11309). Description: Biochemical assay for inhibitors of PIM1 kinase activity (trans-phosphorylation, Dowex technique). Conditions: ATP 200 μM, Aktide 25 μM, enzyme 1 nM; read-out: PIM-1 IC50. The method, then:
Biochemical Assay for Inhibitors of PIM1 Kinase Activity
The inhibitory activity of putative kinase inhibitors and the potency of selected compounds were determined using a trans-phosphorylation assay.
Specific peptide or protein substrates were trans-phosphorylated by their specific ser-thr or tyr kinase in the presence of ATP traced with ^33P-γ-ATP, and in the presence of their own optimal buffer and cofactors.
At the end of the phosphorylation reaction, more than 98% unlabeled ATP and radioactive ATP were captured by an excess of the ion exchange dowex resin; the resin then settled down to the bottom of the reaction plate by gravity. Supernatant was subsequently withdrawn and transferred into a counting plate, then evaluated by β-counting.
Reagents/Assay Conditions i. Dowex Resin Preparation
500 g of wet resin (SIGMA, custom prepared resin DOWEX 1×8 200-400 mesh, 2.5 Kg) were weighed out and diluted to 2 L in 150 mM sodium formate, pH 3.00.
The resin was allowed to settle down (some hours) and then the supernatant was discarded.
After three washes as above over a couple of days, the resin was allowed to settle and two volumes (wrt the resin volume) of 150 mM sodium formate buffer were added.
The pH was then measured and should have been around 3.00.
The washed resin was stable for more than one week; the stock resin was kept at 4° C. before use.
The buffer for PIM1 assay was composed of HEPES 50 mM, at pH 7.5, with 10 mM MgCl2, 1 mM DTT, 3 μM NaVO3, and 0.2 mg/mL BSA.
Full-length human PIM1 was expressed and purified as described in Bullock A N, et al., J. Biol. Chem. 2005, 280, 41675-82.
1.7 μM PIM1 was incubated 1 h at 28° C. in the presence of 125 μM ATP.
ATP concentration: 200 μM; ^33P-γ-ATP: 6 nM; Enzyme concentration: 1 nM Substrate concentration Aktide (Chemical Abstract Service Registry Number 324029-01-8): 25 μM iv. Robotized Dowex Assay
The test mix consisted of:
1) 3× Enzyme mix (done in Kinase Buffer 3×), 5 μL/well
2) 3× substrate and ATP mix (done in ddH2O), together with ^33P-γ-ATP, 5 μL/well 3) 3× test compounds (diluted into ddH2O—3% DMSO)—5 μL/well See below for compound dilution and assay scheme […]
An automated station (Biomek FX, Beckman) was used for serial dilutions, producing 1:3 dilutions in 100% DMSO, from line A1 to A10, for all the compounds in the column.
Data were analyzed by an internally customized version of the “Assay Explorer” SW package, which provided sigmoidal fitting of the ten-dilution curves for IC50 determination in secondary assay/hit confirmation routines.

In another experiment the target is human PIM2 (Homo sapiens (Human), UniProt Q9P1W9). Kind of experiment: PIM2 kinase inhibition assay: Dowex technique. The experiment is classed as biochemical. Conditions: ATP 4 μM, Aktide 5 μM, enzyme 1.5 nM; read-out: PIM-2 IC50. The method, then:
Method for PIM2 Kinase Inhibition Assay: Dowex Technique
The buffer for PIM2 assay was composed of HEPES 50 mM, at pH 7.5, with 1 mM MgCl2, 1 mM DTT, 3 μM Na3VO4, and 0.2 mg/mL BSA.
Full-length human PIM2 was expressed and purified as described in Fedorov O, et al., PNAS 2007 104, 51, 20523-28. ii. Assay Conditions (Final Concentrations)
Enzyme concentration=1.5 nM; ATP=4 μM; ^33P-γ-ATP=1 nM
Aktide substrate (Chemical Abstract Service Registry Number 324029-01-8)=5 μM iii. Robotized Dowex Assay
See above: same procedure as described for PIM1.

In a further experiment the test system is BaF3-PIM1 cells. Kind of experiment: In vitro cell proliferation assay (CellTiter-Glo), BaF3-PIM1. It counts as cell-based. The note with it: 72 hours. The procedure:
In Vitro Cell Proliferation Assay
BaF3-PIM1 and MV-4-11 cells were seeded at 125 cells/well and 1250 cells/well respectively in a 384-well white plates in complete medium and treated with compounds dissolved in 0.1% DMSO, 24 h after seeding.
The cells were incubated at 37° C. and 5% CO2 and after 72 hours the plates were processed using CellTiter-Glo assay (Promega) following the manufacturer's instruction.
CellTiter-Glo was a homogenous method based on the quantification of the ATP present, an indicator of metabolitically active cells. ATP was quantified using a system based on luciferase and D-luciferin resulting into light generation. The luminescent signal was proportional to the number of cells present in culture.
Briefly 25 μl/well reagent solution were added to each wells and after 5 minutes shacking microplates were red by Envision (PerkinElmer) luminometer. The luminescent signal was proportional to the number of cells present in culture.
Inhibitory activity was evaluated comparing treated versus control data using Assay Explorer (MDL) program. IC50 was calculated using sigmoidal interpolation curve.

human PIM2, sequence (Q9P1W9 whole entry): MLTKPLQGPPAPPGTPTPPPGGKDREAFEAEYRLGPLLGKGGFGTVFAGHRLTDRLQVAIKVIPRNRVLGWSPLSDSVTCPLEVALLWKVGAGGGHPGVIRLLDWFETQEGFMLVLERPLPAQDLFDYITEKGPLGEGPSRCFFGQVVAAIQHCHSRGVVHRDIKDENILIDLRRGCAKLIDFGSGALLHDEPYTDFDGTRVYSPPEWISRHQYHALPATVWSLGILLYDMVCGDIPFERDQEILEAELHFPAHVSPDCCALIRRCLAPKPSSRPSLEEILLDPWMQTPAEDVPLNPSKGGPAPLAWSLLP
human PIM1, sequence (P11309 whole entry): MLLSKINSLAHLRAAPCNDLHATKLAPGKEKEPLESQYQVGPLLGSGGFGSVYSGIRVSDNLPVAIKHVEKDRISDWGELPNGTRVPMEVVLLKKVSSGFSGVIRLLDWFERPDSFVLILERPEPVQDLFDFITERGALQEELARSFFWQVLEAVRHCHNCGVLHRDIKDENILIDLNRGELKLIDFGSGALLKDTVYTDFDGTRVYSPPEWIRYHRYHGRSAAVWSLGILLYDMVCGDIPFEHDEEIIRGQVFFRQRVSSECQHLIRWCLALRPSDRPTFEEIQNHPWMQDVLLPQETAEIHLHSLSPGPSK

Regarding `NCCC1CNC(=O)c2cc(-c3ccnc(Cl)c3)c(-c3ccc(CO)cc3)n21` (stereo not drawn) [Compound 44, 4-(2-aminoethyl)-7-(2-chloropyridin-4-yl)-6-[4-(hydroxymethyl)phenyl]-3,4-dihydropyrrolo[1,2-a]pyrazin-1(2H)-one hydrochloride], the half-inhibitory concentration (IC50) at human PIM1 stood at 24 nM; at human PIM2, 110 nM; in the experiment with BaF3-PIM1 cells, 6570 nM.

For `NCC[C@H]1CNC(=O)c2cc(-c3cccc(OC(F)(F)F)c3)c(-c3ccc(O)cc3)n21` [Compound 93, (4S)-4-(2-aminoethyl)-6-(4-hydroxyphenyl)-7-[3-(trifluoromethoxy)phenyl]-3,4-dihydropyrrolo[1,2-a]pyrazin-1(2H)-one hydrochloride], the IC50 was 1 nM at human PIM1, 16 nM at human PIM2 and 699 nM in the experiment with BaF3-PIM1 cells.

As to `CS(=O)(=O)c1ccc(-c2c(-c3cccc(OC(F)(F)F)c3)cc3n2[C@@H](CCN)CNC3=O)cc1` [Compound 96, (4S)-4-(2-aminoethyl)-6-[4-(methylsulfonyl)phenyl]-7-[3-(trifluoromethoxy)phenyl]-3,4-dihydropyrrolo[1,2-a]pyrazin-1(2H)-one hydrochloride], the IC50 is 1 nM on human PIM1, 3 nM at human PIM2 and 5470 nM in the experiment on BaF3-PIM1 cells.

On to `O=C1NCC(CCO)n2c1cc(-c1cccc(OC(F)(F)F)c1)c2-c1ccc(CO)cc1` (stereo not drawn) [Compound 84, 4-(2-hydroxyethyl)-6-[4-(hydroxymethyl)phenyl]-7-[3-(trifluoromethoxy)phenyl]-3,4-dihydropyrrolo[1,2-a]pyrazin-1(2H)-one], for which the IC50 at human PIM1 was 11 nM; on human PIM2, 90 nM; with BaF3-PIM1 cells, 224 nM.

Take `NCCC1CNC(=O)c2cc(-c3cccc(C(F)(F)F)c3)c(-c3ccc(CO)cc3)n21` (stereo not drawn) [Compound 38, 4-(2-aminoethyl)-6-[4-(hydroxymethyl)phenyl]-7-[3-(trifluoromethyl)phenyl]-3,4-dihydropyrrolo[1,2-a]pyrazin-1(2H)-one hydrochloride]: the IC50 worked out at 20 nM on human PIM1, 102 nM at human PIM2 and 3030 nM in the experiment on BaF3-PIM1 cells.

With `Cc1cccc(-c2c(-c3cccc(OC(F)(F)F)c3)cc3n2[C@@H](CCNC(=N)N)CNC3=O)c1` [Compound 148, 1-(2-{(4S)-6-(3-methylphenyl)-1-oxo-7-[3-(trifluoromethoxy)phenyl]-1,2,3,4-tetrahydropyrrolo[1,2-a]pyrazin-4-yl}ethyl)guanidine hydrochloride], the IC50 at human PIM1 stood at 8 nM; on human PIM2, 12 nM; in the experiment on BaF3-PIM1 cells it was 110 nM.

With `NCCC1CNC(=O)c2cc(-c3cccc(C(F)(F)F)c3)c(-c3ccc(O)cc3)n21` (stereo not drawn) [Compound 43, 4-(2-aminoethyl)-6-(4-hydroxyphenyl)-7-[3-(trifluoromethyl)phenyl]-3,4-dihydropyrrolo[1,2-a]pyrazin-1(2H)-one hydrochloride], the IC50 on human PIM1 is 12 nM; at human PIM2 it was 21 nM; in the experiment on BaF3-PIM1 cells, 7000 nM.

Turning to `NCCC1CNC(=O)c2cc(-c3cccc(OC(F)(F)F)c3)c(-c3cccc(N)c3)n21` (stereo not drawn) [Compound 32, 4-(2-aminoethyl)-6-(3-aminophenyl)-7-[3-(trifluoromethoxy)phenyl]-3,4-dihydropyrrolo[1,2-a]pyrazin-1(2H)-one hydrochloride], the IC50 at human PIM1 stood at 8 nM; on human PIM2, 69 nM; in the experiment with BaF3-PIM1 cells it was 2020 nM.

For the compound `CN(C)CCNC(=O)c1ccc(-c2c(-c3cccc(OC(F)(F)F)c3)cc3n2C(CCO)CNC3=O)cc1` (stereo not drawn) [Compound 78, N-[2-(dimethylamino)ethyl]-4-{4-(2-hydroxyethyl)-1-oxo-7-[3-(trifluoromethoxy)phenyl]-1,2,3,4-tetrahydropyrrolo[1,2-a]pyrazin-6-yl}benzamide trifluoroacetate], the concentration for half-maximal inhibition (IC50) at human PIM1 was determined as 6 nM; at human PIM2, 90 nM; with BaF3-PIM1 cells, 4070 nM.

Consider `COc1ccc(-c2c(-c3cccc(OC(F)(F)F)c3)cc3n2[C@@H](CCN)CNC3=O)cc1F` [Compound 113, (4S)-4-(2-aminoethyl)-6-(3-fluoro-4-methoxyphenyl)-7-[3-(trifluoromethoxy)phenyl]-3,4-dihydropyrrolo[1,2-a]pyrazin-1(2H)-one hydrochloride], for which the half-maximal inhibitory concentration (IC50) on human PIM1 was found to be 23 nM; at human PIM2, 36 nM; in the experiment with BaF3-PIM1 cells, 53 nM.

In the case of `CN(C)C(=O)c1ccc(-c2c(-c3cccc(OC(F)(F)F)c3)cc3n2C(CCO)CNC3=O)cc1` (stereo not drawn) [Compound 79, 4-{4-(2-hydroxyethyl)-1-oxo-7-[3-(trifluoromethoxy)phenyl]-1,2,3,4-tetrahydropyrrolo[1,2-a]pyrazin-6-yl}-N,N-dimethylbenzamide], the figures for the IC50 at human PIM1, at human PIM2 and with BaF3-PIM1 cells were 13 nM, 93 nM and 1220 nM, respectively.

Turning to `NCCC1CNC(=O)c2cc(-c3cccc(OC(F)(F)F)c3)c(-c3ccc(CO)cc3)n21` (stereo not drawn) [Compound 33, 4-(2-aminoethyl)-6-[4-(hydroxymethyl)phenyl]-7-[3-(trifluoromethoxy)phenyl]-3,4-dihydropyrrolo[1,2-a]pyrazin-1(2H)-one hydrochloride], the half-maximal inhibitory concentration (IC50) at human PIM1 was 4 nM; on human PIM2 it was 15 nM; in the experiment with BaF3-PIM1 cells it was 598 nM.

As to `NC(=O)c1ccc(-c2c(-c3cccc(OC(F)(F)F)c3)cc3n2C(CCO)CNC3=O)cc1` (stereo not drawn) [Compound 77, 4-{4-(2-hydroxyethyl)-1-oxo-7-[3-(trifluoromethoxy)phenyl]-1,2,3,4-tetrahydropyrrolo[1,2-a]pyrazin-6-yl}benzamide], the figures for the IC50 at human PIM1, on human PIM2 and with BaF3-PIM1 cells were 7 nM, 58 nM and 2320 nM, respectively.

`CC(C)[C@H]1CNC(=O)c2cc(-c3cccc(OC(F)(F)F)c3)c(-c3ccc(CN)cc3)n21` [Compound 138, (4S)-6-[4-(aminomethyl)phenyl]-4-(propan-2-yl)-7-[3-(trifluoromethoxy)phenyl]-3,4-dihydropyrrolo[1,2-a]pyrazin-1(2H)-one]: the half-inhibitory concentration (IC50) on human PIM1 is 12 nM; on human PIM2, 173 nM; in the experiment with BaF3-PIM1 cells, 276 nM.

Regarding `CN1CCC(NC(=O)c2ccc(-c3c(-c4cccc(OC(F)(F)F)c4)cc4n3C(CCO)CNC4=O)cc2)CC1` (stereo not drawn) [Compound 81, 4-{4-(2-hydroxyethyl)-1-oxo-7-[3-(trifluoromethoxy)phenyl]-1,2,3,4-tetrahydropyrrolo[1,2-a]pyrazin-6-yl}-N-(1-methylpiperidin-4-yl)benzamide trifluoroacetate], the values for the 50% inhibitory concentration (IC50) on human PIM1, on human PIM2 and in the experiment on BaF3-PIM1 cells were 11 nM, 69 nM and 6050 nM, respectively.

With `CN1CCN(Cc2ccc(-c3c(-c4cccc(OC(F)(F)F)c4)cc4n3[C@@H](CCCl)CNC4=O)cc2)CC1` [Compound 106, (4S)-4-(2-chloroethyl)-6-{4-[(4-methylpiperazin-1-yl)methyl]phenyl}-7-[3-(trifluoromethoxy)phenyl]-3,4-dihydropyrrolo[1,2-a]pyrazin-1(2H)-one], the figures for the half-maximal inhibitory concentration (IC50) at human PIM1, at human PIM2 and in the experiment on BaF3-PIM1 cells were 27 nM, 99 nM and 210 nM, respectively.

The values above are taken from patent US9181258B2, “Substituted 3,4-dihydropyrrolo[1,2-a]pyrazin-1(2H)-ones as protein kinase inhibitors” (NERVIANO MEDICAL SCIENCES S.R.L., priority 2011, dated 2015).
